Measured values: ChEMBL document CHEMBL5291721, “A preclinical secondary pharmacology resource illuminates target-adverse drug reaction associations of marketed drugs” (Nat Commun, 2023)

Columns and labels:
[1] = target: T1, Muscarinic acetylcholine receptor M1 (Homo sapiens, UniProt P11229); type: functional, cell-based
T1 sequence (P11229 whole entry): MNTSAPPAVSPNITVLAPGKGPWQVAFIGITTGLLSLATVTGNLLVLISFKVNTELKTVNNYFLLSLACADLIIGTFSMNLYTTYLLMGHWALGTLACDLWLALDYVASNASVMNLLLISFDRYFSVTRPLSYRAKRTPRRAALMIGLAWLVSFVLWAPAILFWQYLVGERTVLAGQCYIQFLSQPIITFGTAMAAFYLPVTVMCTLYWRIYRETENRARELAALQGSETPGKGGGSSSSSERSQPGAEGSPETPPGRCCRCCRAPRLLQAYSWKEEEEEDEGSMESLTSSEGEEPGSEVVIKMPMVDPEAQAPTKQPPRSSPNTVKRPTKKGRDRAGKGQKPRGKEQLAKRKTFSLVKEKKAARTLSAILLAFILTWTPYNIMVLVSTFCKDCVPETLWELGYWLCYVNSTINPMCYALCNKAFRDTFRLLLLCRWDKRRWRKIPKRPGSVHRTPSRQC

[2] = target: Gamma-aminobutyric acid receptor subunit alpha-1 (Rattus norvegicus, UniProt P62813)
[3] = target: Glutamate receptor ionotropic, NMDA 1 (Rattus norvegicus, UniProt P35439)
[4] = target: cGMP-inhibited 3',5'-cyclic phosphodiesterase 3A (Homo sapiens, UniProt Q14432); type: functional
Adenosine receptor A1 = target: T2, Adenosine receptor A1 (Homo sapiens, UniProt P30542)
T2 sequence (P30542 whole entry): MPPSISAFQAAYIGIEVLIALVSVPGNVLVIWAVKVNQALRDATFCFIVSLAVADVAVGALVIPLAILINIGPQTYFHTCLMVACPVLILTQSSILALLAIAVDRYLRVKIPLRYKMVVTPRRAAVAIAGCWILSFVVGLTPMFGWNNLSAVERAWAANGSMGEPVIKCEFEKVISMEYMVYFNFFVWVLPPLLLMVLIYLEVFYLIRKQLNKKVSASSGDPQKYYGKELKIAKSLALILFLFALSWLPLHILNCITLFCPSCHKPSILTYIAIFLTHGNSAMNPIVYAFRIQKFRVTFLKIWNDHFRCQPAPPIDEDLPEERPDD

[5] = target: Beta-2 adrenergic receptor (Homo sapiens, UniProt P07550)
B2 bradykinin receptor = target: T3, B2 bradykinin receptor (Homo sapiens, UniProt P30411)
T3 sequence (P30411 whole entry): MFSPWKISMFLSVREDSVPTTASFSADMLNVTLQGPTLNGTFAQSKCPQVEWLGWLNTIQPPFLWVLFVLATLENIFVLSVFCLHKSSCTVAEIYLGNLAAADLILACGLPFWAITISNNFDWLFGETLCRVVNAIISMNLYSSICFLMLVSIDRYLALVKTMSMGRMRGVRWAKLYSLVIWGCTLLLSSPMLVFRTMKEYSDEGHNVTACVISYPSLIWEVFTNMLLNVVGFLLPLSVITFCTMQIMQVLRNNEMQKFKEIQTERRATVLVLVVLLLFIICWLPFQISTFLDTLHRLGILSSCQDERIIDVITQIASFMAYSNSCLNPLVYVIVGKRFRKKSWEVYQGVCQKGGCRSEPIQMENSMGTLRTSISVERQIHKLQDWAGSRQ

[6] = target: T4, Gastrin/cholecystokinin type B receptor (Homo sapiens, UniProt P32239)
T4 sequence (P32239 whole entry): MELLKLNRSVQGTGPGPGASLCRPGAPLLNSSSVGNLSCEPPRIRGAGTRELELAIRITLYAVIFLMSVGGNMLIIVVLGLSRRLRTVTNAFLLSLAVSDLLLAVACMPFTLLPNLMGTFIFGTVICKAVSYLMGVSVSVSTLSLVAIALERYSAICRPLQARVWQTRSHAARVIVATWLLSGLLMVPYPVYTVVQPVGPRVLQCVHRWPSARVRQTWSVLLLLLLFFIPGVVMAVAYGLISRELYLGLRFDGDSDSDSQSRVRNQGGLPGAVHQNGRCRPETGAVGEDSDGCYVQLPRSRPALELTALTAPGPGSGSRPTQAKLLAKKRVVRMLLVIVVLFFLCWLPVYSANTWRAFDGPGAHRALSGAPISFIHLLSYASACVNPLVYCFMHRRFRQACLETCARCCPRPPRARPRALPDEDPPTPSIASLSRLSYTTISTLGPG

[7] = target: T5, Prostaglandin G/H synthase 1 (Rattus norvegicus, UniProt Q63921); type: functional
T5 sequence (Q63921 whole entry): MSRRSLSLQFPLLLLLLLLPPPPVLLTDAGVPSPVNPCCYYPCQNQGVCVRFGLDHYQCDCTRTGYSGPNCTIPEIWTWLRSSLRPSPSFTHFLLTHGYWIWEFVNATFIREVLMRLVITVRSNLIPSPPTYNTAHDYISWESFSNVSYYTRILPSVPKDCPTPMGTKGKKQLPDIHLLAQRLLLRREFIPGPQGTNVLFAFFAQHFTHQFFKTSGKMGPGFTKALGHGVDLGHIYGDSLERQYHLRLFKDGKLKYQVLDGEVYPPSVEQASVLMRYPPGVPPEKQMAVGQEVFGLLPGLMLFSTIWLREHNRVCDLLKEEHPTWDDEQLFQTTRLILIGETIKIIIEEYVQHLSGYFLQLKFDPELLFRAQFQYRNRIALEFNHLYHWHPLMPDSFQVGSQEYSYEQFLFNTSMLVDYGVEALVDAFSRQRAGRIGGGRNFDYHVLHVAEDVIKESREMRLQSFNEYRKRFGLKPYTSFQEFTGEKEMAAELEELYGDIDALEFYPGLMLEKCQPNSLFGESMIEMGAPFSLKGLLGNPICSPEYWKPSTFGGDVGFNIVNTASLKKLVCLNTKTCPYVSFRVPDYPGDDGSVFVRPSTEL

Thromboxane A2 receptor = target: T6, Thromboxane A2 receptor (Homo sapiens, UniProt P21731)
T6 sequence (P21731 whole entry): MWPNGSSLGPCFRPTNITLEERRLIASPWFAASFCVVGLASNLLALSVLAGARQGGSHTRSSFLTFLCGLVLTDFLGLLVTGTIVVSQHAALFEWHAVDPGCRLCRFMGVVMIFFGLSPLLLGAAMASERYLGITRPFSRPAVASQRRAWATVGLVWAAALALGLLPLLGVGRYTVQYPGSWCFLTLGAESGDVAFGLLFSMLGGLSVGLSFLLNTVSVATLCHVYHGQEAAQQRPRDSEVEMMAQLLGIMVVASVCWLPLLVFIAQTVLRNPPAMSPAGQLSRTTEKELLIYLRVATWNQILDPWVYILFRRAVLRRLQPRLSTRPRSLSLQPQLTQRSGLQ
Note: assay procedure not described here.

Sequence of Beta-2 adrenergic receptor (P07550 whole entry): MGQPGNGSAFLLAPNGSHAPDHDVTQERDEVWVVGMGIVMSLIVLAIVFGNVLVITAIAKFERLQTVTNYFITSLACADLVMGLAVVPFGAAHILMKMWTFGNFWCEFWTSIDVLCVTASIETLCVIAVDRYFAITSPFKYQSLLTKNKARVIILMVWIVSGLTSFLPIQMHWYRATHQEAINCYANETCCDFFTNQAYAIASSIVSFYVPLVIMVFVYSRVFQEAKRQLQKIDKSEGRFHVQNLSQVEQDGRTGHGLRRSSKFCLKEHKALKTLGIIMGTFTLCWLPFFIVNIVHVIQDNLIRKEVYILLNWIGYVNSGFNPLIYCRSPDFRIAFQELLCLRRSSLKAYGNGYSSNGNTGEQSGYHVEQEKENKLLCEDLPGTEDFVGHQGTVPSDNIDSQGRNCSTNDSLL
Sequence of cGMP-inhibited 3',5'-cyclic phosphodiesterase 3A (Q14432 whole entry): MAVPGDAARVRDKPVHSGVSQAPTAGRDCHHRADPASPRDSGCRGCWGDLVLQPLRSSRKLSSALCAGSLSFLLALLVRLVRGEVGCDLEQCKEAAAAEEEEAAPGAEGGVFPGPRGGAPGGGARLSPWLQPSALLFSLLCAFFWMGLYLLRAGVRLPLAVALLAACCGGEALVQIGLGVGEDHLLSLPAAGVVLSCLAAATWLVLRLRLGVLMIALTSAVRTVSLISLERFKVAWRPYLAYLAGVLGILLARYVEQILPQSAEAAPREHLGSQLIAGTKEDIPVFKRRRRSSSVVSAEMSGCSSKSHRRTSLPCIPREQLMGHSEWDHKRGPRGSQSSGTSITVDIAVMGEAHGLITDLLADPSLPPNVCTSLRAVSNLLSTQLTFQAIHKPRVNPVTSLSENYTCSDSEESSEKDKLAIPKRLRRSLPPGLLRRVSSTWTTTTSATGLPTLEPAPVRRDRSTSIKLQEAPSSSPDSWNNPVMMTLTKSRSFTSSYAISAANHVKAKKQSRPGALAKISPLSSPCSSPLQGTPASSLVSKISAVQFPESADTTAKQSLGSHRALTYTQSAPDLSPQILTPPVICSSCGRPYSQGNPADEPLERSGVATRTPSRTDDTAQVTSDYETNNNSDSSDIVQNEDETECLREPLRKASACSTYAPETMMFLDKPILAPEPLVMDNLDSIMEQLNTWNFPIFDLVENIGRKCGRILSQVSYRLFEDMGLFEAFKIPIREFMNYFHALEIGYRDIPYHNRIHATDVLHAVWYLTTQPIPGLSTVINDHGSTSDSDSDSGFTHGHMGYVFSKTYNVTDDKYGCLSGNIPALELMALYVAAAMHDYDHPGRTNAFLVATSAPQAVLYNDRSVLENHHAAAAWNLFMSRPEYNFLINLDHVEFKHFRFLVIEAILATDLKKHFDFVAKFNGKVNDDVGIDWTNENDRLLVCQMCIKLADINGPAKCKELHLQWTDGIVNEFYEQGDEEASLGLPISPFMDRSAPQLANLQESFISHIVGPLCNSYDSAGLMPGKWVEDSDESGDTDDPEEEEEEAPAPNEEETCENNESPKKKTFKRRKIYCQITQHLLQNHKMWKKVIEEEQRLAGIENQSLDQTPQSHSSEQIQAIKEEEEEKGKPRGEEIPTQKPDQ
Sequence of Gamma-aminobutyric acid receptor subunit alpha-1 (P62813 whole entry): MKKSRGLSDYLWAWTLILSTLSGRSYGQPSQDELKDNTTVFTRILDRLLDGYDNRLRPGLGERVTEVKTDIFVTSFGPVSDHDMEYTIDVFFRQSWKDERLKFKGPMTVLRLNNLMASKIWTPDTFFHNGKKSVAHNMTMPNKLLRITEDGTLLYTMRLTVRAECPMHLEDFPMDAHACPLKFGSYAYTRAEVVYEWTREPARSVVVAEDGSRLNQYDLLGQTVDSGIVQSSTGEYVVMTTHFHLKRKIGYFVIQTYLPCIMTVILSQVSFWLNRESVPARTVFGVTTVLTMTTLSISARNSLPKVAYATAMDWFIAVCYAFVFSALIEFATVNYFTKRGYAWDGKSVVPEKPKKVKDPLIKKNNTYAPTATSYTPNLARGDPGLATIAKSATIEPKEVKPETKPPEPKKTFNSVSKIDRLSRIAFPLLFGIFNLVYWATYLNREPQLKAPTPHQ

| Compound | AC50 [1] [µM] | AC50 [2] [µM] | AC50 [3] [µM] | AC50 [4] [µM] | AC50 (Adenosine receptor A1) [µM] | AC50 [5] [µM] | AC50 (B2 bradykinin receptor) [µM] | AC50 [6] [µM] | AC50 [7] [µM] | AC50 (Thromboxane A2 receptor) [µM] |
| --- | --- | --- | --- | --- | --- | --- | --- | --- | --- | --- |
| C[N+](C)(C)CCOP(=O)(O)OP(=O)([O-])OC[C@H]1O[C@@H](n2ccc(N)nc2=O)[C@H](O)[C@@H]1O [CITICOLINE] | > 30 | > 30 | > 30 | > 30 |  |  |  |  |  |  |
| O=C1Cc2cc(CCN3CCN(c4nsc5ccccc45)CC3)c(Cl)cc2N1 [ZIPRASIDONE] | > 30 | > 30 | > 10 | > 30 | > 30 | > 30 | > 30 | > 30 | > 30 | > 30 |
| COc1ccccc1OC1(C)OC(=O)c2ccccc2O1 (stereo not given) [GUAIMESAL] | > 30 | > 30 |  |  | > 30 | > 30 | > 30 | > 30 |  | > 30 |
| O=C(O)Cc1ccccc1Oc1ccc(Cl)cc1Cl [FENCLOFENAC] | > 30 | > 30 | > 10 | > 30 | > 30 | > 10 | > 30 | > 30 | > 30 | > 30 |
| CCCc1nc2c(C)cc(-c3nc4ccccc4n3C)cc2n1Cc1ccc(-c2ccccc2C(=O)O)cc1 | 17.6 | > 30 | > 30 | > 30 | > 30 | > 30 | > 30 | > 30 | > 30 | 18.1 |
| C[Se]CC[C@H](N)C(=O)O [SELENOMETHIONINE] | > 30 | > 30 |  |  |  |  |  |  |  |  |
| Nc1cccc2c1C(=O)N(C1CCC(=O)NC1=O)C2=O (stereo not given) [POMALIDOMIDE] | > 30 | > 30 |  |  |  |  |  |  |  |  |
| COc1cc(C(C)=O)ccc1OCCCN1CCC(c2noc3cc(F)ccc23)CC1 [ILOPERIDONE] | > 10 | > 30 |  |  | > 30 | > 10 |  | 9.33 | > 30 |  |
| O=C(O)CN(CCN(CC(=O)O)CC(=O)O)CCN(CC(=O)O)CC(=O)O [PENTETIC ACID] | > 30 | > 30 |  |  |  |  |  |  |  |  |
| CC[C@@H]1C[C@]1(NC(=O)[C@@H]1C[C@@H]2CN1C(=O)[C@H](C(C)(C)C)NC(=O)OCC(C)(C)CCCCc1cccc3c1CN(C3)C(=O)O2)C(=O)NS(=O)(=O)C1CC1 | 23.4 | > 30 |  |  |  |  |  |  |  |  |
